Several values for one entry are separate records, joined by “and”; a condition that tells them apart may be missing. Equal entries are not always repeated. Where a SMILES comes first, the peptide text is derived from it. [ ]: non-standard residue; d: D form. pS = N[C@@H](COP(=O)(O)O)C(=O)O
Tests used:
14-3-3 tau [1] = target: T1, 14-3-3 tau (Homo sapiens, UniProt P27348); assay: SPR competitive inhibition of 14-3-3 tau binding to phosphorylated Raf-259 peptide; conditions: isoform tau
T1 construct: made in house; host or cells: E. coli DH5α (vector pGEX-KT)
T1 sequence (P27348 1-245): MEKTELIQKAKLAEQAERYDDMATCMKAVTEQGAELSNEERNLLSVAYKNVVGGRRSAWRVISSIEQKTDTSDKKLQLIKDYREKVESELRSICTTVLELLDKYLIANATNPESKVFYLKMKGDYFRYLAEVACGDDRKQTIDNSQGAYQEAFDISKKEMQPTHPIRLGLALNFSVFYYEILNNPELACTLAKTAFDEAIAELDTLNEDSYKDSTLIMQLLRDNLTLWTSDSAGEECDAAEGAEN
Procedure: (§1) The ability of each peptide to inhibit binding of 14-3-3 zeta to the phosphorylated peptide was then tested in a range of concentrations between 1 and 50 μM. 14-3-3 zeta was prepared according to the methods in Example 1 and binding affinities and specificities were determined using the peptides in Table 2. The 14-3-3 zeta fusion proteins (0.5-1.0 μM) were pre-incubated with a given peptide at concentrations between 1 μM and 50 μM. 14-3-3 zeta was then infused across a sensor chip surface which had been previously coupled with the phosphorylated Raf-259 peptide (SEQ ID NO: 4). IC50 values were determined by plotting the concentration of competitor peptide required to achieve a 50% reduction in equilibrium binding.
(§2) There are seven known isoforms of 14-3-3 which form homo- and heterodimers in vivo. If different isoforms of 14-3-3 could bind to proteins with distinct specificities, heterodimeric forms of 14-3-3 might function as modular linker proteins, bringing together different proteins into a single complex. We were, therefore, interested in determining whether different 14-3-3 isoforms recognize phosphoserine in a sequence specific fashion. This hypothesis was tested by expressing and purifying three other 14-3-3 isoforms, eta, beta and tau, and measuring their affinity towards the panel of phosphorylated peptides generated above. Using the Surface Plasmon Resonance method, the "on" and "off" rates for 14-3-3 binding to the phosphorylated Raf-259 peptide were calculated (Table 6).
(§3) Competitive inhibition with the mutated phosphorylated Raf-1 peptides was used to determine whether their specificities were similar (Table 7). In each case, the calculated IC50 s were very similar to those calculated for 14-3-3 zeta.

14-3-3 zeta [2] = target: T2, 14-3-3 zeta (Homo sapiens, UniProt P63104); assay: SPR competitive inhibition of 14-3-3 zeta binding to chip-coupled phosphorylated Raf-259 peptide; conditions: 14-3-3 zeta 0.5-1.0 μM; competitor 1-50 μM; relative affinity only
T2 construct: made in house; host or cells: E. coli DH5α (vector pGEX-KT)
T2 sequence (P63104 1-245): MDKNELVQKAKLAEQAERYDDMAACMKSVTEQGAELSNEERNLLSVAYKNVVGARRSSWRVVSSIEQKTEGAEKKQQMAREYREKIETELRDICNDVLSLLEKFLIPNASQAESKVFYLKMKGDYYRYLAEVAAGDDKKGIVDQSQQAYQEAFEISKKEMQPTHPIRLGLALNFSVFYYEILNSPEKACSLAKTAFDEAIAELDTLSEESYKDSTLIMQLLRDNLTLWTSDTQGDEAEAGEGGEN
Procedure: as §1

14-3-3 beta [3] = target: T3, 14-3-3 beta (Homo sapiens, UniProt P31946); assay: SPR competitive inhibition of 14-3-3 beta binding to phosphorylated Raf-259 peptide; conditions: isoform beta
T3 construct: made in house; host or cells: E. coli DH5α (vector pGEX-KT)
T3 sequence (P31946 1-246): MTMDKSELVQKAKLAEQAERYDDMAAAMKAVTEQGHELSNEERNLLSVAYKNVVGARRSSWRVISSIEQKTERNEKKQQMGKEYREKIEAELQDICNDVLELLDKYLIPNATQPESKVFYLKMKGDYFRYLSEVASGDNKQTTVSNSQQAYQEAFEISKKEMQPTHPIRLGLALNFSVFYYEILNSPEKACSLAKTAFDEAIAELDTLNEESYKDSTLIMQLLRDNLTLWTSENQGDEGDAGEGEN
Procedure: as §1, §2, §3

14-3-3 eta [4] = target: T4, 14-3-3 eta (Homo sapiens, UniProt Q04917); assay: SPR competitive inhibition of 14-3-3 eta binding to phosphorylated Raf-259 peptide; conditions: isoform eta
T4 construct: made in house; host or cells: E. coli DH5α (vector pGEX-KT)
T4 sequence (Q04917 1-246): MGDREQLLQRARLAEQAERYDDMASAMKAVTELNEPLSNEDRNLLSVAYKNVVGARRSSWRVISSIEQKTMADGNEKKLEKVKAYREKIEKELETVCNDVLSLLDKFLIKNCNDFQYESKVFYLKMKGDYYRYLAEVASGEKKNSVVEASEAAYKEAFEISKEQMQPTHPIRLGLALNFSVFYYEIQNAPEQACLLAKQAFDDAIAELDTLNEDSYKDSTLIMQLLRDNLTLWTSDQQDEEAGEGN
Procedure: as §1, §2, §3

14-3-3 tau [5] = target: T1, 14-3-3 tau; assay: Surface plasmon resonance kinetics, 14-3-3 tau binding to phosphorylated Raf-259 peptide; conditions: isoform tau
Procedure: (§4) Because the surface plasmon resonance detects binding in real time, this method can be used to directly determine the rates of association (kon) and dissociation (koff). For these kinetic measurements, GST/14-3-3 fusion proteins were injected over a range of concentrations between 200 nM and 5 μM. The "on" rate, kon, was determined by calculating dR/dt for the initial linear portion of association using the Biaevaluation software (Pharmacia). Because ligand rebinding to the sensor chip can affect the "off" rate (koff, Panayotou et al. Mol Cell Biol 13:3567-76, 1993 which is incorporated by reference), we measured the "off" rate in the presence of 50 μM free ligand by using the coinject function of the Biacore. The "off" rate measured in the absence of 50 μM free ligand was approximately 10-fold lower.
as §2

14-3-3 eta [6] = target: T4, 14-3-3 eta; assay: Surface plasmon resonance kinetics, 14-3-3 eta binding to phosphorylated Raf-259 peptide; conditions: isoform eta
Procedure: as §4, §2

14-3-3 zeta [7] = target: T2, 14-3-3 zeta; assay: Surface plasmon resonance, GST-14-3-3 zeta binding to immobilized biotinylated Raf-259 peptide (binding and kinetics); conditions: isoform zeta
Procedure: These experiments were performed using the BIAcore 2000 (Pharmacia). The basic principles and detection methods have been reviewed previously (Jonsson et al. Biotech. 11:620-7, 1991; Jonsson et al. Ann Bio Clin 51:19-26, 1993 which are incorporated by reference). In brief, 5 μl of the biotinylated raf-259 peptide (1 nM) was immobilized onto streptavidin-coated (SA5, Pharmacia) sensor chips at a flow rate of 5 μl/min at 25° C. […] To phosphorylate the immobilized peptides, 5 U of PKA in a buffer containing 200 μM ATP in 50 μl was infused over the chip at a flow rate of 2 μl/min at 30° C.
as §4
The biotinylated, […] Raf-1 peptide (SEQ ID NO: 4) was coupled to avidin coated chip surface to study the kinetics of its binding to 14-3-3 zeta. The association rate was determined to be approximately 2.3×10^4 M^-1×s^-1 and the dissociation rate was determined to be approximately 2.8×10^-3 s^-1. To minimize the effects of protein rebinding to the surface of the sensor chip, the dissociation rate was measured in the presence of 50 μM free phosphorylated Raf-1 peptide.

14-3-3 beta [8] = target: T3, 14-3-3 beta; assay: Surface plasmon resonance kinetics, 14-3-3 beta binding to phosphorylated Raf-259 peptide; conditions: isoform beta
Procedure: as §4, §2

`CC(C)C[C@H](N)C(=O)N[C@@H](CO)C(=O)N[C@@H](CCC(N)=O)C(=O)N[C@@H](CCCNC(=N)N)C(=O)N[C@@H](CCC(N)=O)C(=O)N[C@@H](CCCNC(=N)N)C(=O)N[C@@H](CO)C(=O)N[C@H](C(=O)N[C@@H](COP(=O)(O)O)C(=O)N[C@H](C(=O)N1CCC[C@H]1C(=O)N[C@@H](CC(N)=O)C(=O)N[C@H](C(=O)N[C@@H](Cc1c[nH]cn1)C(=O)N[C@@H](C)C(=O)O)C(C)C)[C@@H](C)O)[C@@H](C)O` [pS-Raf-259] (H-LSQRQRST[pS]TPNVHA-OH) was tested, and the IC50 (14-3-3 tau [1]) was 5 µM, the IC50 (14-3-3 zeta [2]) was 6 µM and ~6 µM and the IC50 (14-3-3 beta [3]) was 6 µM. It also gave an IC50 (14-3-3 eta [4]) of 5 µM, a Kd (14-3-3 tau [5]) of 144 nM and a koff (14-3-3 tau [5]) of 0.0036 s⁻¹. For the same compound, the kon (14-3-3 tau [5]) was 25000 M⁻¹ s⁻¹, the Kd (14-3-3 eta [6]) was 128 nM and the koff (14-3-3 eta [6]) was 0.0029 s⁻¹. The kon (14-3-3 eta [6]) was 22600 M⁻¹ s⁻¹, the Kd (14-3-3 zeta [7]; read-out: KD) was 122 nM and the koff (14-3-3 zeta [7]; read-out: koff) was 0.0028 s⁻¹. It also gave a kon (14-3-3 zeta [7]; read-out: kon) of 23000 M⁻¹ s⁻¹, a Kd (14-3-3 beta [8]) of 145 nM and a koff (14-3-3 beta [8]) of 0.0032 s⁻¹. For the same compound, the kon (14-3-3 beta [8]) was 22000 M⁻¹ s⁻¹.

— patent publication US6207393A, “Inhibition of intracellular signal transduction by 14-3-3-binding peptides” (Washington University, priority 1999, dated 2001)
